# Experimental data from ChEMBL document CHEMBL3421614, “Identification of novel aldose reductase inhibitors based on carboxymethylated mercaptotriazinoindole scaffold” (J Med Chem, 2015).
# pIC50: −log10 of the molar value.
# Target: Aldo-keto reductase family 1 member B1 (Rattus norvegicus) (UniProt P07943)
# Assay: Inhibition of Wistar rat lens aldose reductase using D,L-glyceraldehyde as substrate at 100 uM incubated for 1 min measured for 4 mins by spectrophotometry
# Conditions: not given
row,SMILES,inhibition
1,O=C(O)CCn1ccc2ccccc21,53.5%
2,Sc1nnc2c(n1)[nH]c1ccccc12,4.41%
3,CCN(CC)Cc1cn(CCC(=O)O)c2ccccc12,19.9%

# Tested on: not listed separately
# Assay: Octanol-phosphate buffer partition coefficient, log D of the compound at 100 uM at pH 7.4 at RT after 1 hr by shake flask method
# Format: physicochemical
# Conditions: not given
row,SMILES,"logD at 1 h, 100 µM"
1,O=C(O)Cn1c2ccccc2c2nnc(S)nc21,-1.9

# Target: Aldo-keto reductase family 1 member B10 (Homo sapiens, UniProt O60218)
# Assay: Inhibition of human AKR1B10 using D-glucuronate as substrate by spectrophotometry
# Conditions: not given
# Sequence of Aldo-keto reductase family 1 member B10 (O60218 whole entry): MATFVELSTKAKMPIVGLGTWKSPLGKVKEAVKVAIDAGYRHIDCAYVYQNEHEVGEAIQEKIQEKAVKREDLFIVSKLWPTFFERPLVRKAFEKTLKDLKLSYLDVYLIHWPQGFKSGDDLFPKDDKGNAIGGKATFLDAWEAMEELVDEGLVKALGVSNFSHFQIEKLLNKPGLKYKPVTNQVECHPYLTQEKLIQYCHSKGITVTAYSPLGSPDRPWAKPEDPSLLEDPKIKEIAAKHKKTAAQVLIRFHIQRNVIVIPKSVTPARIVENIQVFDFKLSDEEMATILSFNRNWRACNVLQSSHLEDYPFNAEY
row,SMILES,pIC50
1,O=C(O)Cn1c2ccccc2c2nnc(S)nc21,4.67

# Target: Aldo-keto reductase family 1 member B1 (Rattus norvegicus, UniProt P07943)
# Assay: Inhibition of Wistar rat lens aldose reductase using D,L-glyceraldehyde as substrate incubated for 1 min measured for 4 mins by spectrophotometry
# Conditions: read-out: IC50
row,SMILES,pIC50
1,O=C(O)Cn1c2ccccc2c2nc3ccccc3nc21,5.56
2,O=C(O)Cn1c2c(c3ccccc31)CCC2,5.54
3,O=C(O)Cn1cc(N2CCOCC2)c2ccccc21,4.46
4,O=C(O)Cn1c2ccccc2c2nn3c(nc4ccccc43)nc21,5.00
5,CC(C)(C)C(=O)c1cn(CC(=O)O)c2ccccc12,4.86
6,Cc1cc(C)c(NC(=O)CSc2nnc3c4ccccc4n(CC(=O)O)c3n2)c(C)c1,5.39
7,O=C(O)Cn1cc(Cc2nc3c(F)c(F)cc(F)c3s2)c2ccccc21 [LIDORESTAT],8.30
8,O=C(O)Cn1ccc2ccccc21,5.14
9,O=C(O)Cn1c2ccccc2c2cn[nH]c(=O)c21,4.94
10,CCCNC(=O)CSc1nnc2c3cc(C)ccc3n(CC(=O)O)c2n1,6.48
11,CCN(CC)Cc1cn(CC(=O)O)c2ccccc12,4.52
12,O=C(O)Cn1c2ccccc2c2nnc(Sc3ccccc3F)nc21,5.65
13,Cc1c(CN(C)C)c2ccccc2n1CC(=O)O,4.38
14,CC(C)Sc1nnc2c3ccccc3n(CC(=O)O)c2n1,5.69
15,O=C(O)Cn1cc(N2CCCC2)c2ccccc21,4.33

# Same assay, conditions: read-out: pIC50 (converted)
row,SMILES,IC50
1,O=C(O)Cn1c2ccccc2c2nnc(Sc3ccccc3F)nc21,2.19 µM

# Tested on: not listed separately
# Assay: Inhibition of Wistar rat kidney aldehyde reductase using D-glucuronate as substrate at 100 uM by spectrophotometry
# Conditions: not given
row,SMILES,inhibition
1,O=C(O)CCn1ccc2ccccc21,11.8%
2,O=C(O)Cn1cc(N2CCOCC2)c2ccccc21,32.5%
3,O=C(O)Cn1c2ccccc2c2cn[nH]c(=O)c21,49%
4,CCN(CC)Cc1cn(CCC(=O)O)c2ccccc12,6.65%
5,CCN(CC)Cc1cn(CC(=O)O)c2ccccc12,38%
6,Cc1c(CN(C)C)c2ccccc2n1CC(=O)O,22.3%
7,O=C(O)Cn1cc(N2CCCC2)c2ccccc21,19.2%

# Tested on: not listed separately
# Assay: Inhibition of Wistar rat kidney aldehyde reductase using D-glucuronate as substrate at 10 uM by spectrophotometry
# Conditions: not given
row,SMILES,inhibition
1,O=C(O)Cn1c2ccccc2c2nn3c(nc4ccccc43)nc21,15.1%
2,Cc1cc(C)c(NC(=O)CSc2nnc3c4ccccc4n(CC(=O)O)c3n2)c(C)c1,23.5%
3,O=C(O)Cn1c2ccccc2c2nnc(Sc3ccccc3F)nc21,1.18%

# Target: Aldo-keto reductase family 1 member B1 (Rattus norvegicus) (UniProt P07943)
# Assay: Inhibition of Wistar rat lens aldose reductase using D,L-glyceraldehyde as substrate at 10 uM incubated for 1 min measured for 4 mins by spectrophotometry
# Conditions: not given
row,SMILES,inhibition
1,O=C(O)CSc1nnc2c(n1)[nH]c1ccccc12,3.46%
